Laboratory results: patent US7960410B2, “Method for treating insulin resistance, abdominal obesity, hypertension, hyperinsulinemia, and elevated blood lipids with a cortisol inhibitor” (Cortendo AB, priority 1994, dated 2011)
Several values for one entry are separate records, joined by “and”; a condition that tells them apart may be missing. Equal entries are not always repeated. Entries after “also recorded” stand apart in the source; their conditions may differ.

System: women with diabetes mellitus type II
Experiment: Clinical tests of women with diabetes mellitus type II treated with ketoconazole
Type: in vivo, human
Conditions: for Serum-ASAT / Serum-ALAT / GIR (glucose infusion rate during euglycemic glucose clamp), indicating insulin sensitivity / Fasting serum total cholesterol / Diastolic blood pressure measured after 5 min. in supine position, 2 measurements averaged / Systolic blood pressure measured after 5 min. in supine position, 2 measurements averaged / Fasting blood glucose: after treatment
Procedure: We have investigated a group of people with diabetes mellitus type II.
Group 1 consists of 3 patients (mean age: 46 years) treated with ketoconazole for 2 weeks, administered orally 22:00 in the evening in the dose of 400 mg.
Group 2 consists of 5 patients (mean age: 51 years) treated with ketoconazole for 6 weeks, administered orally 22:00 in the evening in the dose of 400 mg. Results are expressed as mean values within groups.

[1] = diabetes mellitus type II patients, after vs before treatment

`CC(=O)N1CCN(c2ccc(OCC3COC(Cn4ccnc4)(c4ccc(Cl)cc4Cl)O3)cc2)CC1` (stereo not shown) [ketoconazole] was tested, and the Serum-ASAT (Group 1: 400 mg orally 22:00 for 2 weeks, group mean (before: 0.36)) was 0.33 μkat/L, the Serum-ALAT (Group 1: 400 mg orally 22:00 for 2 weeks, group mean (before: 0.61)) was 0.52 μkat/L and the “GIR (glucose infusion rate during euglycemic glucose clamp), indicating insulin sensitivity” value (Group 1: 400 mg orally 22:00 for 2 weeks, group mean (before: 0.9)) was 1.85 mg glucose per minute divided by lean body mass. The “Fasting serum total cholesterol” value (Group 1: 400 mg orally 22:00 for 2 weeks, group mean (before: 5.80)) was 5.67 mmol/L, the “Diastolic blood pressure measured after 5 min. in supine position, 2 measurements averaged” value (Group 1: 400 mg orally 22:00 for 2 weeks, group mean (before: 70)) was 70 mm Hg and the “Systolic blood pressure measured after 5 min. in supine position, 2 measurements averaged” value (Group 1: 400 mg orally 22:00 for 2 weeks, group mean (before: 140)) was 135 mm Hg. For the same compound, the Fasting blood glucose (Group 1: 3 patients, 400 mg orally 22:00 for 2 weeks, group mean (before: 10.20)) was 8.77 mmol/L, the Serum-ASAT (Group 2: 400 mg orally 22:00 for 6 weeks, group mean (before: 0.26)) was 0.25 μkat/L and the Serum-ALAT (Group 2: 400 mg orally 22:00 for 6 weeks, group mean (before: 0.40)) was 0.37 μkat/L. The “GIR (glucose infusion rate during euglycemic glucose clamp), indicating insulin sensitivity” value (Group 2: 400 mg orally 22:00 for 6 weeks, group mean (before: 2.97)) was 4.32 mg glucose per minute divided by lean body mass, the “Fasting serum total cholesterol” value (Group 2: 400 mg orally 22:00 for 6 weeks, group mean (before: 4.80)) was 4.10 mmol/L and the “Diastolic blood pressure measured after 5 min. in supine position, 2 measurements averaged” value (Group 2: 400 mg orally 22:00 for 6 weeks, group mean (before: 75)) was 72 mm Hg. The “Systolic blood pressure measured after 5 min. in supine position, 2 measurements averaged” value (Group 2: 400 mg orally 22:00 for 6 weeks, group mean (before: 125)) was 123 mm Hg, the Fasting blood glucose (Group 2: 5 patients, 400 mg orally 22:00 for 6 weeks, group mean (before: 7.20)) was 7.10 mmol/L and the “Effect on blood pressure (in words)” value [1] was “decreasing blood pressure values”. For the same compound, the “Effect on insulin sensitivity / insulin resistance (in words), euglycemic glucose clamp” value [1] was “a reduction of the insulin insensitivity (resistance); also recorded: improved insulin sensitivity; also recorded: a remarkable improvement of insulin sensitivity”, the “Effect on plasma cholesterol levels (in words)” value [1] was “Reduced cholesterol levels in the plasma” and the “Effect on blood glucose (in words)” value (diabetes mellitus type II patients, after vs before treatment for 2 and 6 weeks, fasting or 2 hours after i.v. glucose infusion) was “lower blood glucose after treatment compared to before treatment; also recorded: a decrease in blood glucose”. For the same compound, the “Blood glucose 2 hours after start of an i.v. glucose infusion” value (human, in vivo) was 7.90 mmol/L and 5.76 mmol/L.
